Results from ChEMBL document CHEMBL5528016, “Design, synthesis and evaluation of novel deferasirox derivatives with high antifungal potency in vitro and in vivo” (Eur J Med Chem, 2024).
Converted amounts (≈) assume the structure as drawn.

Legend:
Cryptococcus neoformans [1] = experiment: Antifungal activity against Cryptococcus neoformans H99 assessed as reduction in fungal growth incubated for 72 hrs by broth microdilution method; format: functional
Nakaseomyces glabratus [2] = experiment: Antifungal activity against Candida glabrata 537 assessed as reduction in fungal growth incubated for 72 hrs by broth microdilution method; format: functional
Cryptococcus neoformans [3] = experiment: Antifungal activity against Cryptococcus neoformans HN1 assessed as reduction in fungal growth incubated for 72 hrs by broth microdilution method; format: functional
[4] = Antifungal activity against Cryptococcus gattii VGI E566 assessed as reduction in fungal growth incubated for 72 hrs by broth microdilution method; format: functional
Erythrocyte = experiment: Hemolytic activity in rabbit Red blood cell at 64 ug/ml; format: toxicity, cell-based, Oryctolagus cuniculus; conditions: dose 64 µg/ml
Candida albicans = experiment: Antifungal activity against Candida albicans SC5314 assessed as reduction in fungal growth incubated for 72 hrs by broth microdilution method; format: functional
Cryptococcus neoformans [5] = experiment: Antifungal activity against Cryptococcus neoformans 444 assessed as reduction in fungal growth incubated for 72 hrs by broth microdilution method; format: functional
[6] = Antifungal activity against Cryptococcus gattii VGI SCZ20024 assessed as reduction in fungal growth incubated for 72 hrs by broth microdilution method; format: functional
[7] = Antifungal activity against Cryptococcus gattii VGI WM178 assessed as reduction in fungal growth incubated for 72 hrs by broth microdilution method; format: functional
Candida parapsilosis = experiment: Antifungal activity against Candida parapsilosis ATCC 22019 assessed as reduction in fungal growth incubated for 72 hrs by broth microdilution method; format: functional; conditions: Lodderomyces parapsilosis
Pichia kudriavzevii = experiment: Antifungal activity against Pichia kudriavzevii 4946 assessed as reduction in fungal growth incubated for 72 hrs by broth microdilution method; format: functional
[Candida] auris = Antifungal activity against Candida auris D12 assessed as reduction in fungal growth incubated for 72 hrs by broth microdilution method; format: functional; conditions: Candidozyma auris
[8] = Antifungal activity against Cryptococcus gattii VGI WM179 assessed as reduction in fungal growth incubated for 72 hrs by broth microdilution method; format: functional
Nakaseomyces glabratus [9] = experiment: Antifungal activity against Candida glabrata Y10-15 assessed as reduction in fungal growth incubated for 48 hrs by broth microdilution method; format: functional
[10] = Antifungal activity against Cryptococcus gattii VGI SCZ20031 assessed as reduction in fungal growth incubated for 72 hrs by broth microdilution method; format: functional
Cryptococcus neoformans [11] = experiment: Antifungal activity against Cryptococcus neoformans HN15 assessed as reduction in fungal growth incubated for 72 hrs by broth microdilution method; format: functional
Cryptococcus neoformans [12] = experiment: Antifungal activity against Cryptococcus neoformans 20 assessed as reduction in fungal growth incubated for 72 hrs by broth microdilution method; format: functional
Nakaseomyces glabratus [13] = experiment: Antifungal activity against Candida glabrata 203 assessed as reduction in fungal growth incubated for 48 hrs by broth microdilution method; format: functional
Candida tropicalis = experiment: Antifungal activity against Candida tropicalis 2718 assessed as reduction in fungal growth incubated for 72 hrs by broth microdilution method; format: functional
Nakaseomyces glabratus [14] = experiment: Antifungal activity against Candida glabrata 337 assessed as reduction in fungal growth incubated for 48 hrs by broth microdilution method; format: functional
Cryptococcus neoformans [15] = experiment: Antifungal activity against Cryptococcus neoformans BJ3 assessed as reduction in fungal growth incubated for 72 hrs by broth microdilution method; format: functional
Nakaseomyces glabratus [16] = experiment: Antifungal activity against Candida glabrata YC1-34 assessed as reduction in fungal growth incubated for 48 hrs by broth microdilution method; format: functional
Cryptococcus neoformans [17] = experiment: Potency index, ratio of deferasirox MIC to test compound for antifungal activity against Cryptococcus neoformans H99 incubated for 72 hrs by broth microdilution method; format: functional

Which MIC (Cryptococcus neoformans [1]) does the source give for `O=C(NCc1ccncc1)c1ccc(-n2nc(-c3ccccc3O)nc2-c2ccccc2O)cc1` here?
Its MIC is 4 µg/mL (≈ 8.63 µM).

Which MIC (Cryptococcus neoformans [1]) does the source give for `NC(=O)c1ccc(-n2nc(-c3ccccc3O)nc2-c2ccccc2O)cc1` here?
The MIC was 4 µg/mL (≈ 10.7 µM).

With `CNC(=O)c1ccc(-n2nc(-c3ccccc3O)nc2-c2ccccc2O)cc1` as the compound, how does the MIC (Cryptococcus neoformans [1]) read?
The MIC was 1 µg/mL (≈ 2.59 µM).

Which MIC (Cryptococcus neoformans [1]) does the source give for `O=C(NCC(O)c1ccccc1)c1ccc(-n2nc(-c3ccccc3O)nc2-c2ccccc2O)cc1` (centres undefined) here?
Its MIC is 4 µg/mL (≈ 8.12 µM).

For `O=C(NCc1cccnc1)c1ccc(-n2nc(-c3ccccc3O)nc2-c2ccccc2O)cc1`, which MIC (Cryptococcus neoformans [1]) is on record?
Its MIC is 8 µg/mL (≈ 17.3 µM).

Which MIC (Cryptococcus neoformans [1]) does the source give for `O=C(c1ccc(-n2nc(-c3ccccc3O)nc2-c2ccccc2O)cc1)N1CCC(O)CC1` here?
The MIC was 4 µg/mL (≈ 8.76 µM).

Which results are given for `OC(Cn1cncn1)(Cn1cncn1)c1ccc(F)cc1F` [FLUCONAZOLE]?
MIC (Nakaseomyces glabratus [2]): 0.25 µg/mL (≈ 0.816 µM); MIC (Cryptococcus neoformans [3]): 2 µg/mL (≈ 6.53 µM); MIC [4]: 32 µg/mL (≈ 104 µM); Activity (Erythrocyte): Non-Toxic; MIC (Candida albicans): 0.125 µg/mL (≈ 0.408 µM); MIC (Cryptococcus neoformans [5]): 16 µg/mL (≈ 52.2 µM); MIC [6]: 4 µg/mL (≈ 13.1 µM); MIC [7]: 16 µg/mL (≈ 52.2 µM); MIC (Candida parapsilosis): 1 µg/mL (≈ 3.27 µM); MIC (Pichia kudriavzevii): 16 µg/mL (≈ 52.2 µM); MIC ([Candida] auris): > 64 µg/mL; MIC [8]: 16 µg/mL (≈ 52.2 µM); MIC (Nakaseomyces glabratus [9]): 4 µg/mL (≈ 13.1 µM); MIC [10]: 4 µg/mL (≈ 13.1 µM); MIC (Cryptococcus neoformans [11]): 4 µg/mL (≈ 13.1 µM); MIC (Cryptococcus neoformans [12]): 8 µg/mL (≈ 26.1 µM); MIC (Nakaseomyces glabratus [13]): > 64 µg/mL; MIC (Candida tropicalis): < 0.125 µg/mL; MIC (Nakaseomyces glabratus [14]): 2 µg/mL (≈ 6.53 µM); MIC (Cryptococcus neoformans [15]): 8 µg/mL (≈ 26.1 µM); MIC (Nakaseomyces glabratus [16]): 2 µg/mL (≈ 6.53 µM)

With `O=C(NCc1ccccc1)c1ccc(-n2nc(-c3ccccc3O)nc2-c2ccccc2O)cc1` as the compound, how does the MIC (Cryptococcus neoformans [1]) read?
The MIC was 4 µg/mL (≈ 8.65 µM).

With `O=C(NCC(=O)N1CCOCC1)c1ccc(-n2nc(-c3ccccc3O)nc2-c2ccccc2O)cc1` as the compound, how does the MIC (Cryptococcus neoformans [1]) read?
Its MIC is 1 µg/mL (≈ 2 µM).

With `CN1CCC(CNC(=O)c2ccc(-n3nc(-c4ccccc4O)nc3-c3ccccc3O)cc2)CC1` as the compound, how does the MIC (Cryptococcus neoformans [1]) read?
Its MIC is 4 µg/mL (≈ 8.27 µM).

Which MIC (Cryptococcus neoformans [1]) does the source give for `CCCCNC(=O)c1ccc(-n2nc(-c3ccccc3O)nc2-c2ccccc2O)cc1` here?
Its MIC is 4 µg/mL (≈ 9.34 µM).

With `O=C(NCCCN1CCOCC1)c1ccc(-n2nc(-c3ccccc3O)nc2-c2ccccc2O)cc1` as the compound, how does the MIC (Cryptococcus neoformans [1]) read?
Its MIC is 1 µg/mL (≈ 2 µM).

With `O=C(NCCCC(F)(F)F)c1ccc(-n2nc(-c3ccccc3O)nc2-c2ccccc2O)cc1` as the compound, how does the MIC (Cryptococcus neoformans [1]) read?
The MIC was 8 µg/mL (≈ 16.6 µM).

For `O=C(NCCO)c1ccc(-n2nc(-c3ccccc3O)nc2-c2ccccc2O)cc1`, which MIC (Cryptococcus neoformans [1]) is on record?
The MIC was 4 µg/mL (≈ 9.61 µM).

What does the source list for `COC(=O)CCNC(=O)c1ccc(-n2nc(-c3ccccc3O)nc2-c2ccccc2O)cc1`?
Ratio (Cryptococcus neoformans [17]): 4; MIC (Nakaseomyces glabratus [2]): < 0.125 µg/mL; MIC (Candida albicans): > 64 µg/mL; MIC (Candida parapsilosis): > 64 µg/mL; MIC (Pichia kudriavzevii): 4 µg/mL (≈ 8.72 µM); MIC (Cryptococcus neoformans [1]): 0.5 µg/mL (≈ 1.09 µM); MIC ([Candida] auris): > 64 µg/mL; MIC (Candida tropicalis): 0.125 µg/mL (≈ 0.273 µM)

For `O=C(N[C@H]1CCOC1)c1ccc(-n2nc(-c3ccccc3O)nc2-c2ccccc2O)cc1`, which MIC (Cryptococcus neoformans [1]) is on record?
Its MIC is 4 µg/mL (≈ 9.04 µM).

For `CN1CCN(CCNC(=O)c2ccc(-n3nc(-c4ccccc4O)nc3-c3ccccc3O)cc2)CC1`, which MIC (Cryptococcus neoformans [1]) is on record?
The MIC was 1 µg/mL (≈ 2.01 µM).

Which MIC (Cryptococcus neoformans [1]) does the source give for `C[N+]1(CCNC(=O)c2ccc(-n3nc(-c4ccccc4O)nc3-c3ccccc3O)cc2)CCOCC1.[I-]` here?
Its MIC is 4 µg/mL.

Which MIC (Cryptococcus neoformans [1]) does the source give for `O=C1CC(NC(=O)c2ccc(-n3nc(-c4ccccc4O)nc3-c3ccccc3O)cc2)CN1` (centres undefined) here?
Its MIC is 4 µg/mL (≈ 8.78 µM).

Which MIC (Cryptococcus neoformans [1]) does the source give for `O=C(NC1CCS(=O)(=O)C1)c1cccc(-n2nc(-c3ccccc3O)nc2-c2ccccc2O)c1` (centres undefined) here?
Its MIC is 4 µg/mL (≈ 8.15 µM).

With `CS(=O)(=O)CCNC(=O)c1ccc(-n2nc(-c3ccccc3O)nc2-c2ccccc2O)cc1` as the compound, how does the MIC (Cryptococcus neoformans [1]) read?
The MIC was 1 µg/mL (≈ 2.09 µM).

Which MIC (Cryptococcus neoformans [1]) does the source give for `O=C(NCc1ncccn1)c1ccc(-n2nc(-c3ccccc3O)nc2-c2ccccc2O)cc1` here?
The MIC was 4 µg/mL (≈ 8.61 µM).

With `Cc1nccn1CCCNC(=O)c1ccc(-n2nc(-c3ccccc3O)nc2-c2ccccc2O)cc1` as the compound, how does the MIC (Cryptococcus neoformans [1]) read?
Its MIC is 8 µg/mL (≈ 16.2 µM).

With `CCCNC(=O)c1ccc(-n2nc(-c3ccccc3O)nc2-c2ccccc2O)cc1` as the compound, how does the MIC (Cryptococcus neoformans [1]) read?
The MIC was 4 µg/mL (≈ 9.65 µM).

Which MIC (Cryptococcus neoformans [1]) does the source give for `CC(C)(O)CNC(=O)c1ccc(-n2nc(-c3ccccc3O)nc2-c2ccccc2O)cc1` here?
Its MIC is 2 µg/mL (≈ 4.5 µM).

With `O=C(NCC1CCS(=O)(=O)C1)c1ccc(-n2nc(-c3ccccc3O)nc2-c2ccccc2O)cc1` (centres undefined) as the compound, how does the MIC (Cryptococcus neoformans [1]) read?
Its MIC is 8 µg/mL (≈ 15.9 µM).

Which results are given for `COCCNC(=O)c1ccc(-n2nc(-c3ccccc3O)nc2-c2ccccc2O)cc1`?
MIC (Nakaseomyces glabratus [2]): < 0.125 µg/mL; MIC (Candida albicans): 8 µg/mL (≈ 18.6 µM); MIC (Candida parapsilosis): > 64 µg/mL; MIC (Pichia kudriavzevii): 1 µg/mL (≈ 2.32 µM); MIC (Cryptococcus neoformans [1]): 0.25 µg/mL (≈ 0.581 µM); MIC ([Candida] auris): > 64 µg/mL; MIC (Candida tropicalis): 4 µg/mL (≈ 9.29 µM)

Which MIC (Cryptococcus neoformans [1]) does the source give for `O=C(NCCOc1ccccn1)c1ccc(-n2nc(-c3ccccc3O)nc2-c2ccccc2O)cc1` here?
The MIC was 4 µg/mL (≈ 8.1 µM).

Which MIC (Cryptococcus neoformans [1]) does the source give for `O=C(NCCCN1CCOCC1)c1cccc(-n2nc(-c3ccccc3O)nc2-c2ccccc2O)c1` here?
The MIC was 2 µg/mL (≈ 4 µM).

For `O=C(NCCN1CCOCC1)c1ccc(-n2nc(-c3ccccc3O)nc2-c2ccccc2O)cc1`, which MIC (Nakaseomyces glabratus [2]) is on record?
Its MIC is < 0.125 µg/mL.

What about the MIC (Candida albicans) of the same compound?
The MIC was 32 µg/mL (≈ 65.9 µM).

What about the MIC (Candida parapsilosis) of the same compound?
Its MIC is 64 µg/mL (≈ 132 µM).

And the MIC (Pichia kudriavzevii)?
Its MIC is 8 µg/mL (≈ 16.5 µM).

What about the MIC (Cryptococcus neoformans [1]) of the same compound?
The MIC was 0.5 µg/mL (≈ 1.03 µM).

What about the MIC ([Candida] auris) of the same compound?
Its MIC is > 64 µg/mL.

And the MIC (Candida tropicalis)?
Its MIC is 4 µg/mL (≈ 8.24 µM).
